Assay results published in patent US20100226981A1, “ORAL DOSAGE FORMS HAVING A HIGH LOADING OF A GABAPENTIN PRODRUG” (XenoPort, Inc., priority 2009, published 2010).

Assays:
[1] = dosed either orally or directly into the colon of a mammal; cited from earlier work
[2] = Flow characterization of dry powders and granulations (density, Carr, Hausner, Flodex); format: physicochemical; settings: ungranulated, no water
Description: The flow of dry powders was characterized using a FLODEX™ Powder Flowability Index Test Instrument (Hanson Research Corporation, Chatsworth, Calif.). The instrument was equipped with a cylindrical metal reservoir, which holds the test powder prior to flow testing. The cylindrical reservoir has an inside diameter of 5.7 cm and a length of […]. The bottom end of the reservoir can be closed with removable metal discs. Each disc has a round orifice centered in the disc. Orifice diameters range from 4 mm to 10 mm in 1 mm increments, and from 10 mm to 34 mm in 2 mm increments. Prior to flow testing, the orifice is blocked. Powder is then placed over the blocked orifice. When the orifice is unblocked, powder can flow through the orifice under the force of gravity if the orifice diameter is sufficiently large. Powder that flows through small orifices is considered to have flow properties useful for tableting. For example, a Flodex measurement (Flodex) of less than about 24 mm is typically used for high-speed tableting operations at commercial scale. A Flodex less than about 20 mm is useful for high-speed tableting operations. A Flodex of 18 mm or less is considered especially useful for high throughput tableting operations.
The Flodex is determined by first gently filling the reservoir while the orifice at the bottom is blocked with approximately 70 cc of test powder, while avoiding severe piling, and without vibrating or tapping the powder bed. Next, the orifice is unblocked. This can be accomplished by opening a shutter that is supplied with the instrument. Alternatively, if a shutter is not used, the powder-filled reservoir fitted with a disc can be set on a dry, flat surface to block the orifice. Then, slowly and evenly, the reservoir is lifted to allow the powders to flow. In either procedure, if the powder flows through the orifice, a clear channel is left within the powder bed. […] The flow test is conducted with various orifice sizes until the minimum orifice size for good flow is identified, which is referred to as the Flodex.
The impact of the amount of water used during high shear wet granulation on the strength of granules was determined. Granulations containing either 98 wt-% compound (1), 1 wt-% METHOCELT™-E4M and 1 wt-% SLS, or 97 wt-% compound (1) and 3 wt-% METHOCEL™-E4M, were prepared using from 20 wt-% to 30 wt-% water, dried, and the granule strength measured by determining the air pressure at which the particles began to fracture using a Sympatec particle analyzer (QicPic/RODOS-L/VIBRI-L, Sympatec GmbH, Clausthal-Zellerfeld, DE).
The Main Blend contained 98 wt-% compound (1), 1 wt-% METHOCELT™-E4M, and 1 wt-% SLS. Blend D contained 90 wt-% granules blended with 8 wt-% METHOCEL™-K100M and 2 wt-% magnesium stearate, and Blend E contained 89 wt-% granules blended with 8 wt-% METHOCEL™-K100M and 3 wt-% magnesium stearate and were prepared as described in Example 4.

Bulk Density [2]: 0.329 gm/mL | Carr Index [2]: 27.0 | Flodex [2]: >34 mm | Hausner Ratio [2]: 1.37 | Tap Density [2]: 0.450 gm/mL
SMILES: CC(OC(=O)NCC1(CC(=O)O)CCCCC1)OC(=O)C(C)C (stereo not drawn) [Compound (1), 1-([(α-Isobutanoyloxyethoxy)carbonyl]aminomethyl)-1-cyclohexane acetic acid]
bioavailability as gabapentin [1]: high bioavailability as gabapentin
